Measurements as given in patent publication US7524861B2, “Process for the preparation of a hydrate of an anthranilic acid derivative” (priority 2002, dated 2009).

Experiments:
Format in all cases: cell-based
H69/LX4 = experiment: Potentiation of toxicity of various cytotoxic agents, potentiation index; conditions: for Potentiaton Index at RMA Concentration 10 nM: compound 10 nM; for Potentiaton Index at RMA Concentration 30 nM: compound 30 nM
Protocol: (§1) (b) Cells were cultured for four days with a titration of doxorubicin (0.263 nM-[…]) in the presence of a fixed concentration of each compound. Proliferation was quantified as described by Skehen et al, loc cit. The IC50 (concentration required to reduce proliferation to 50% of the untreated controls) for doxorubicin alone and with each compound were derived and used to calculate the potentiation index (PI):
(§2) The potentiation indices of a selection of compounds using a variety of cell lines and a variety of cytotoxics other than doxorubicin were measured following the protocol described above for doxorubicin, and the results are shown in Table D.

2780AD = experiment: as above; conditions: Taxol, compound 10 nM
Protocol: as §1, §2

AR 1.0 cells = experiment: Potentiation of doxorubicin toxicity: proliferation assay, compound titrated against fixed doxorubicin (sulphorhodamine B); conditions: Mus musculus, 96 h; with fixed doxorubicin (0.34 mm); four day incubation; read-out: Toxicity with Cytotoxic Agent (IC50 mM)
Protocol: The EMT6 mouse mammary carcinoma cell line and the MDR resistant subline AR 1.0 were cultured in RPMI 1640 medium containing 10% foetal calf serum and 2 mM glutamine at 37° C. in 5% CO2. Cells were passaged between 1 in 200 and 1 in 2000 in the case of the parental cell line and between 1 in 20 and 1 in 200 in the case of the MDR resistant subline, after trypsinisation (0.25% trypsin, 0.2 gl^−1, EDTA).
(a) Selected compounds of formula (I) were examined for their ability to potentiate the toxicity of doxorubicin in AR 1.0 cells. In initial proliferation assays compounds were titrated against a fixed concentration of doxorubicin ([…]) which alone is non-toxic to AR 1.0 cells. After a four day incubation with doxorubicin proliferation was measured using the colorimetric sulphorhodamine B assay (Skehan et al; J Natl. Cancer Inst. 82 pp 1107-1112 (1990)).

SMILES	IC50 (AR 1.0 cells) [nM]	further results
COc1cc2c(cc1OC)CN(CCc1ccc(NC(=O)c3sccc3NC(=O)c3cnc4ccccc4c3)cc1)CC2 [Compound 3, Quinoline-3-carboxylic acid (2-{4-[2-(6,7-dimethoxy-3,4-dihydro-1H-isoquinolin-2-yl)-ethyl]-phenylcarbamoyl}-thiophen-3-yl)-amide]	–	Potentiaton Index at RMA Concentration 10 nM (H69/LX4; Vincristine): 2; Potentiaton Index at RMA Concentration 30 nM (H69/LX4; Vincristine): 79; Potentiaton Index at RMA Concentration 10 nM (2780AD): 18
COc1cc2c(cc1OC)CN(CCc1ccc(NC(=O)c3c(C)csc3NC(=O)c3cnc4ccccc4c3)cc1)CC2 [Compound 6, Quinoline-3-carboxylic acid (3-{4-[2-(6,7-dimethoxy-3,4-dihydro-1H-isoquinolin-2-yl)-ethyl]-phenylcarbamoyl}-4-methyl-thiophen-2-yl)-amide]	–	Potentiaton Index at RMA Concentration 10 nM (H69/LX4; Taxol): 1; Potentiaton Index at RMA Concentration 30 nM (H69/LX4; Taxol): 3; Potentiaton Index at RMA Concentration 50 nM (H69/LX4; Taxol, compound 50 nM): 9
COc1ccc(CN(C)CCc2ccc(NC(=O)c3ccccc3NC(=O)c3cnc4ccccc4c3)cc2)cc1OC [Compound 7, Quinoline-3-carboxylic acid [2-(4-{2-[(3,4-dimethoxy-benzyl)-methyl-amino]-ethyl}-phenylcarbamoyl)-phenyl]-amide]	–	Potentiaton Index at RMA Concentration 10 nM (H69/LX4; Taxol): 2.2
COc1cc2c(cc1OC)CN(CCNC(=O)c1ccccc1NC(=O)c1nccc3ccccc13)CC2 [Compound 27, Isoquinoline-1-carboxylic acid {2-[2-(6,7-dimethoxy-3,4-dihydro-1H-isoquinolin-2-yl)-ethylcarbamoyl]-phenyl}-amide]	1000	–
COc1cc2c(cc1OC)CN(CCNC(=O)c1ccccc1NC(=O)c1ccc3ccccc3n1)CC2 [Compound 28, Quinoline-2-carboxylic acid {2-[2-(6,7-dimethoxy-3,4-dihydro-1H-isoquinolin-2-yl)-ethylcarbamoyl]-phenyl}-amide]	550	–
COc1cc2c(cc1OC)CN(CCNC(=O)c1ccccc1NC(=O)c1cc3ccccc3cn1)CC2 [Compound 29, Isoquinoline-3-carboxylic acid {2-[2-(6,7-dimethoxy-3,4-dihydro-1H-isoquinolin-2-yl)-ethylcarbamoyl]-phenyl}-amide]	300	–
COc1cc2c(cc1OC)CN(CCc1ccc(NC(=O)c3cc(F)ccc3NC(=O)c3cnc4ccccc4c3)cc1)CC2 [Compound 33, Quinoline-3-carboxylic acid (2-{4-[2-(6,7-dimethoxy-3,4-dihydro-1H-isoquinolin-2-yl)-ethyl]-phenylcarbamoyl}-4-fluoro-phenyl)-amide]	5	–
COc1cc2c(cc1OC)CN(CCc1ccc(NC(=O)c3cc(OC)c(OC)cc3NC(=O)c3cnc4ccccc4c3)cc1)CC2 [Compound 34, Quinoline-3-carboxylic acid (2-{4-[2-(6,7-dimethoxy-3,4-dihydro-1H-isoquinolin-2-yl)-ethyl]-phenylcarbamoyl}-4,5-dimethoxy-phenyl)-amide]	1.8	–
COc1cc2c(cc1OC)CN(CCc1ccc(NC(=O)c3cc4c(cc3NC(=O)c3cnc5ccccc5c3)OCO4)cc1)CC2 [Compound 35, Quinoline-3-carboxylic acid (6-{4-[2-(6,7-dimethoxy-3,4-dihydro-1H-isoquinolin-2-yl)-ethyl]-phenylcarbamoyl}-benzo[1,3]dioxol-5-yl)-amide]	1.4	–
COc1cc2c(cc1OC)CN(CCc1ccc(NC(=O)c3ccc([N+](=O)[O-])cc3NC(=O)c3cnc4ccccc4c3)cc1)CC2 [Compound 36, Quinoline-3-carboxylic acid (2-{4-[2-(6,7-dimethoxy-3,4-dihydro-1H-isoquinolin-2-yl)-ethyl]-phenylcarbamoyl}-5-nitro-phenyl)-amide]	3.8	–
COc1cc2c(cc1OC)CN(CCc1ccc(NC(=O)c3cc(C)ccc3NC(=O)c3cnc4ccccc4c3)cc1)CC2 [Compound 37, Quinoline-3-carboxylic acid (2-{4-[2-(6,7-dimethoxy-3,4-dihydro-1H-isoquinolin-2-yl)-ethyl]-phenylcarbamoyl}-4-methyl-phenyl)-amide]	15	–
COc1cc2c(cc1OC)CN(CCc1ccc(NC(=O)c3ccc(C)cc3NC(=O)c3cnc4ccccc4c3)cc1)CC2 [Compound 38, Quinoline-3-carboxylic acid (2-{4-[2-(6,7-dimethoxy-3,4-dihydro-1H-isoquinolin-2-yl)-ethyl]-phenylcarbamoyl}-5-methyl-phenyl)-amide]	5	–
COc1cc2c(cc1OC)CN(CCc1ccc(NC(=O)c3cc(Cl)ccc3NC(=O)c3cnc4ccccc4c3)cc1)CC2 [Compound 39, Quinoline-3-carboxylic acid (2-{4-[2-(6,7-dimethoxy-3,4-dihydro-1H-isoquinolin-2-yl)-ethyl]-phenylcarbamoyl}-4-chloro-phenyl)-amide]	5	–
COc1cc2c(cc1OC)CN(CCc1ccc(NC(=O)c3ccc(Cl)cc3NC(=O)c3cnc4ccccc4c3)cc1)CC2 [Compound 40, Quinoline-3-carboxylic acid (2-{4-[2-(6,7-dimethoxy-3,4-dihydro-1H-isoquinolin-2-yl)-ethyl]-phenylcarbamoyl}-5-chloro-phenyl)-amide]	40	–
COc1cc2c(cc1OC)CN(CCc1ccc(NC(=O)c3ccc(N)cc3NC(=O)c3cnc4ccccc4c3)cc1)CC2 [Compound 41, Quinoline-3-carboxylic acid (2-{4-[2-(6,7-dimethoxy-3,4-dihydro-1H-isoquinolin-2-yl)-ethyl]-phenylcarbamoyl}-5-amino-phenyl)-amide]	4400	–
COc1cc2c(cc1OC)CN(CCc1ccc(NC(=O)c3ccccc3NC(=O)c3ccc4ccccc4n3)cc1)CC2 [Compound 42, Quinoline-2-carboxylic acid (2-{4-[2-(6,7-dimethoxy-3,4-dihydro-1H-isoquinolin-2-yl)-ethyl]-phenylcarbamoyl}-phenyl)-amide]	70	–
COc1cc2c(cc1OC)CN(CCc1ccc(NC(=O)c3ccccc3NC(=O)c3cnc4c(c3)CCCC4)cc1)CC2 [Compound 43, 5,6,7,8-Tetrahydroquinoline-3-carboxylic acid (2-{4-[2-(6,7-dimethoxy-3,4-dihydro-1H-isoquinolin-2-yl)-ethyl]-phenylcarbamoyl}-phenyl)-amide]	50	–
O=C(Nc1ccccc1C(=O)Nc1ccc(CCN2CCc3ccccc3C2)cc1)c1cnc2ccccc2c1 [Compound 44, Quinoline-3-carboxylic acid (2-{4-[2-(3,4-dihydro-1H-isoquinolin-2-yl)-ethyl]-phenylcarbamoyl}-phenyl)-amide]	0.35	–
COc1cc2c(cc1OC)CN(Cc1ccc(NC(=O)c3ccccc3NC(=O)c3cnc4ccccc4c3)cc1)CC2 [Compound 45, Quinoline-3-carboxylic acid {2-[4-(6,7-dimethoxy-3,4-dihydro-1H-isoquinolin-2-ylmethyl)-phenylcarbamoyl]-phenyl}-amide]	22	–
